Paper PMC6834573, “Novel insights into transketolase activation by cofactor binding identifies two native species subpopulations” (Scientific Reports, 2019)

B1: Wild-type E. coli transketolase (apo-transketolase) (enzyme)
chain: SSRKELANAIRALSMDAVQKAKSGHPGAPMGMADIAEVLWRDFLKHNPQNPSWADRDRFVLSNGHGSMLIYSLLHLTGYDLPMEELKNFRQLHSKTPGHPEVGYTAGVETTTGPLGQGIANAVGMAIAEKTLAAQFNRPGHDIVDHYTYAFMGDGCMMEGISHEVCSLAGTLKLGKLIAFYDDNGISIDGHVEGWFTDDTAMRFEAYGWHVIRDIDGHDAASIKRAVEEARAVTDKPSLLMCKTIIGFGSPNKAGTHDSHGAPLGDAEIALTREQLGWKYAPFEIPSEIYAQWDAKEAGQAKESAWNEKFAAYAKAYPQEAAEFTRRMKGEMPSDFDAKAKEFIAKLQANPAKIASRKASQNAIEAFGPLLPEFLGGSADLAPSNLTLWSGSKAINEDAAGNYIHYGVREFGMTAIANGISLHGGFLPYTSTFLMFVEYARNAVRMAALMKQRQVMVYTHDSIGLGEDGPTHQPVEQVASLRVTPNMSTWRPCDQVESAVAWKYGVERQDGPTALILSRQNLAQQERTEEQLANIARGGYVLKDCAGQPELIFIATGSEVELAVAAYEKLTAEGVKARVVSMPSTDAFDKQDAAYRESVLPKAVTARVAVEAGIADYWYKYVGLNGAIVGMTTFGESAPAELLFEEFGFTVDNVVAKAKELL
notes: Transketolase (EC 2.2.1.1) of E. coli, wild type; monomeric molecular weight 73035.5 g/mol as printed; The preparation is a mixture; By mass spectrometry about 31% carries one or two extra oxygen atoms (TKhigh, most likely Cys157 sulfenic or sulfinic acid) and the rest is unmodified (TKlow); also called TK; apoTK; source: E. coli XL10-gold, from the plasmid pQR791, purified, ultrafiltrated and …

What was measured:
[1] = target: T1, wild-type E. coli transketolase (TK; TKhigh / TKlow subpopulations) (Escherichia coli, UniProt P27302); assay: intrinsic fluorescence quenching (ex […] nm, em […] nm), double-Hill fit; format: binding; conditions: read-out: Kd(high)
T1 construct: gene tktA; full length, N-terminal His6-tag kept, from plasmid pQR791 in E. coli XL10-gold; apo form after dialysis; homodimer; about one third oxidised (TKhigh), rest unmodified (TKlow)
T1 sequence (P27302 whole entry): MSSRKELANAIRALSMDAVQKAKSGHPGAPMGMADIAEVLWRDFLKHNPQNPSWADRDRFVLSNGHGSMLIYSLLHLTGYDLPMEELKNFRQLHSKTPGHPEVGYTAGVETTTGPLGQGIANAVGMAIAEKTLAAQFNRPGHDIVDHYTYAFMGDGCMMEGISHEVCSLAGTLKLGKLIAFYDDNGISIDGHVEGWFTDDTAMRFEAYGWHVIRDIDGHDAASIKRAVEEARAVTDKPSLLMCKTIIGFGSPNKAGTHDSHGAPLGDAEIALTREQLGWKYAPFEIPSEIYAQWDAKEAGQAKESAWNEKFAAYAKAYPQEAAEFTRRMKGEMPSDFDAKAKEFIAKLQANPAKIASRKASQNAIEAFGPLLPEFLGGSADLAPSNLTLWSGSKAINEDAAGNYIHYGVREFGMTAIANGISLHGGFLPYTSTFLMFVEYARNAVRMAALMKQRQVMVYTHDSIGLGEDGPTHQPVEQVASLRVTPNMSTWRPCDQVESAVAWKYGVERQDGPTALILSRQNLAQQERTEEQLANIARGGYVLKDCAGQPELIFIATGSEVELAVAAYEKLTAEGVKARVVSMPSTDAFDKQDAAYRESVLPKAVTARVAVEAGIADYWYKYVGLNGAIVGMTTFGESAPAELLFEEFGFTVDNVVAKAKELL

[2] = target: T1, wild-type E. coli transketolase (TK; TKhigh / TKlow subpopulations); assay: as above; format: binding; conditions: second site, 9 mM Mg2+, 50 mM Tris-HCl pH 7.0, 22 °C, 0.05 mg/mL TK, low-affinity subpopulation TKlow (chemically unmodified enzyme)
[3] = target: the molecule itself; assay: AUC; sedimentation velocity, apoTK at 0.2 mg/mL without Mg2+ and TPP, 20 °C, pH 7.0, 40,000 rpm, c(s) analysis with SEDFIT; dimer to monomers

Molecule | Kd [1] [µM] | Kd(low) [2] [µM] | stoichiometry N [3]
Cc1ncc(C[n+]2csc(CCOP(=O)(O)OP(=O)(O)O)c2C)c(N)n1 [TPP, thiamine pyrophosphate] | 2.29 ± 0.23 | 276 ± 25 | –
B1 | – | – | 2
